Laboratory results as given in patent publication US20250059139A1, “COMPOUNDS FOR TREATMENT OF CANCER” (THE JOHNS HOPKINS UNIVERSITY, priority 2021, published 2025).

What was measured:
[1] = test system: human prostate cancer cell lines; experiment: In vitro growth of human prostate cancer cell lines; type: cell-based; settings: CWR22Rv1, 3 of the 4 lines (FIGS. 48A-48C: BCap-1, LgCap-1, CWR-22Rv1)
From the text: Prostate Cancer Models. The source, history, and characteristics of the human prostate cancer cell lines and PDXs used, as well as cell culture conditions for their in vitro maintenance and the in vivo protocol for xenograft growth in triple immune-deficient NSG (i.e. NOD.Cg-PrkdcScidIl2rgtmlWji/Szj), adult (>8 week old) male mice obtained from the Sidney Kimmel Comprehensive Cancer Center (SKCCC) Animal Core Facility are described previously (Isaacs 2013; Brennen et al. JCI Insight. 2021, 6(8):e146827; Zhu et al. Oncogene 2020, 39(45): 6935-6949). […] In vitro growth curves were determined as described (Isaacs 2013). In vivo growth response to oral daily TasQ (10 mg/kg/d) of TRAMP-C2 mouse prostate cancers was evaluated in C57BL/6J syngeneic wild type vs. NOX-2 vs. iNOS null male mice obtained from Jackson Laboratory (Bar Harbor, ME). Growth response to oral daily TasQ (10 mg/kg/d) of TRAMP-C2 and B6CaP mouse prostate cancers was also evaluated in S100A9 null C57BL′6J male mice obtained from Dmitry Gabrilovich (Wistar Institute). […] In vitro growth curves were determined as described (Isaacs 2013). Growth response to daily oral TasQ vs. ESATA-20 (both at 10 mg/kg/d) of Myc-CaP-CR mouse prostate cancer was evaluated in syngeneic FVB/NJ castrate male mice from Jackson Laboratory. […]

[2] = test system: CYP1A1; experiment: CYP1A1 mRNA induction in LNCaP cells (RT-PCR); type: cell-based; settings: human, read-out: EC50 as a CYP1A inducer in LNCaP cells
From the text: Real-time quantitative PCR (Q-PCR) analysis. […] ID NO: 2) and […] ID NO: 3). […] ID NO: 4) and […] ID NO: 5).

Compound	IC50 [1]	EC50 [2]
COc1cccc2c1c(O)c(C(=O)N(c1ccc(C(F)(F)F)cc1)C1CCCCC1)c(=O)n2C [ESATA-20]	< 10 µM	–
COc1cccc2c1c(O)c(C(=O)N(C)c1ccc(C(F)(F)F)cc1)c(=O)n2C [TasQ, Tasquinimod]	–	1 µM
